Structures can show the parent of a compound that is named as a salt. Where two headings read alike, the source gives them in different places.
Legend:
Human D1 = target: T1, Human D1 (Homo sapiens, UniProt P21728); assay: Inhibition of dopamine-stimulated cAMP response (HTRF) in HEK293 cells expressing human D1; format: cell-based
T1 construct: expressed in transfected cells

[1] = system: C. quinquefasciatus larvae; conditions: for LT50, Cq: at 400 μM; for earliest time debilitated larvae observed after exposure, C. quinquefasciatus: 400 μM; for larval mortality, C. quinquefasciatus, within the first 24 h: 24 h post exposure (S3 Fig)
Ae. aegypti larvae [2] = conditions: for LT50, Aa: at 400 μM
AaDOP2 [3] = target: T2, AaDOP2 (Aedes aegypti, UniProt H6D5H2); assay: cell-based
T2 sequence (H6D5H2 1-476): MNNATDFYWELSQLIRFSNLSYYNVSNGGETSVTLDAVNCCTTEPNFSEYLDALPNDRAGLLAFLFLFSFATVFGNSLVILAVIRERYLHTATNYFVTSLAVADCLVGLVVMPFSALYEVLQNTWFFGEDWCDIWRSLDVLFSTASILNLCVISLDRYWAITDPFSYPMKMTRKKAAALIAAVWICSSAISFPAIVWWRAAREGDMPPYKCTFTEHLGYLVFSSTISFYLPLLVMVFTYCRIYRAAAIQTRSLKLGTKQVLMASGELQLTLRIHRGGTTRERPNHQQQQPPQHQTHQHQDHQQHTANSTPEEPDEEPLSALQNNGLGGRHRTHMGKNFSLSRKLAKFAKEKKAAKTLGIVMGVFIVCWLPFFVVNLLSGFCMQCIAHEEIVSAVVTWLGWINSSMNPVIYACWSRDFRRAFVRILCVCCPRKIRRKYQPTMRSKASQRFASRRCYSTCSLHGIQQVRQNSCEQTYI

CqDOP2 [4] = target: T3, CqDOP2 (Culex quinquefasciatus, UniProt A0A0B5H0X6); assay: cell-based
T3 sequence (A0A0B5H0X6 entry or part of it): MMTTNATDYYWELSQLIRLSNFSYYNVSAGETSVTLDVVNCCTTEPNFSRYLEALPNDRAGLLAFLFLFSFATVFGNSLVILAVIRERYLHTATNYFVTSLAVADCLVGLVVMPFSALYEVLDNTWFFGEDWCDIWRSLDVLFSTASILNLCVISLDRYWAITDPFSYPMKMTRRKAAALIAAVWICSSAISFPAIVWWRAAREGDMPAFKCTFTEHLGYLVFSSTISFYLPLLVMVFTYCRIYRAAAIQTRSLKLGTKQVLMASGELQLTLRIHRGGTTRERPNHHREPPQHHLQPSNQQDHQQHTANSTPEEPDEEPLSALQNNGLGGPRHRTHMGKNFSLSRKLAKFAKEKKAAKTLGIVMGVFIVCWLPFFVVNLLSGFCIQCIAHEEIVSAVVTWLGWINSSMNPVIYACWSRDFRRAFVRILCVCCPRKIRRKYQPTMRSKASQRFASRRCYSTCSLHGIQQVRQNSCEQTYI

[5] = system: C. quinquefasciatus larvae; assay: whole plant or invertebrate; conditions: Culex quinquefasciatus, 72 h, read-out: LC50, Cq
Ae. aegypti larvae [6] = assay: whole plant or invertebrate; conditions: Aedes aegypti, 72 h, read-out: LC50, Aa
CqDOP2 [7] = target: T3, CqDOP2; assay: HTRF cAMP accumulation assay, agonist response of CqDOP2 stably expressed in HEK293 cells; format: cell-based; conditions: for EC50 fold higher than that of dopamine, CqDOP2: cAMP response
AaDOP2 [8] = target: T2, AaDOP2; conditions: cAMP response
AaDOP2 [9] = target: T2, AaDOP2; assay: cell-based; remark: listed apart in the source
AmDOP2 = conditions: ref [19]; cited from earlier work
CqDOP2 [10] = target: T3, CqDOP2; conditions: read-out: IC50 for inhibition of dopamine-stimulated cAMP response, CqDOP2; HEK293 cells; dopamine 3 μM; ±SEM
[11] = read-out: IC50 for inhibition of dopamine-stimulated cAMP response, Human D1

T1 sequence (P21728 whole entry): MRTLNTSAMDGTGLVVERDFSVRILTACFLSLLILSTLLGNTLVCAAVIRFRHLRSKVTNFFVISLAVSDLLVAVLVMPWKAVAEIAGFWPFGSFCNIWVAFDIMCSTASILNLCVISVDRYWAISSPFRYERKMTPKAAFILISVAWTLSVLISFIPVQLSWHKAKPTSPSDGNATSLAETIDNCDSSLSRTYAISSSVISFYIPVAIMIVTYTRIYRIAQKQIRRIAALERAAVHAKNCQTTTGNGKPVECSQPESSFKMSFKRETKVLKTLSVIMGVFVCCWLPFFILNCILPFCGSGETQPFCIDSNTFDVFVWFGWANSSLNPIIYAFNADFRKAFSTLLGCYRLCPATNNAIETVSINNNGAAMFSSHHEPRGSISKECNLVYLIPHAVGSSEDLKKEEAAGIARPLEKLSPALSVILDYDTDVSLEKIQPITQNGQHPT

| IC50 (AaDOP2 [3]) | IC50 (CqDOP2 [4]) | Compound | LT50, Cq ([1]; L3 larvae, ±SEM, n ≥ 3) | LT50, Aa (Ae. aegypti larvae [2]; L3 larvae, ±SEM, n ≥ 3) | LC50 [5] | LC50 (Ae. aegypti larvae [6]) | further results |
| --- | --- | --- | --- | --- | --- | --- | --- |
| – | – | CN1CCN2c3ccccc3Cc3ccccc3C2C1 (stereo not shown) [Mianserin] | 17.9 ± 3.0 h | 22.8 ± 1.3 h | – | – | – |
| 0.469 ± 0.071 µM | 0.248 ± 0.042 µM | CCNC(=O)N1CCN(CCCC(c2ccc(F)cc2)c2ccc(F)cc2)CC1 [Amperozide, amperozide hydrochloride] | 25.4 ± 1.5 h | 46.6 ± 6.2 h | 135 ± 35 µM | 161 ± 20 µM | IC50 (Human D1; [11]): 16.2 ± 4.77 µM |
| – | – | CNC[C@H](O)c1ccc(O)c(O)c1 [Epinephrine, (-)-epinephrine bitartrate] | – | – | – | – | EC50 (CqDOP2 [7]): 80.8 ± 21 µM; EC50 fold higher than that of dopamine, CqDOP2 (CqDOP2 [7]): at least 10 fold; EC50 fold higher than that of dopamine, AaDOP2 (AaDOP2 [8]): at least 10 fold; EC50 (AaDOP2 [9]): 41.1 ± 10.5 µM |
| – | – | NC[C@H](O)c1ccc(O)c(O)c1 [Norepinephrine, L (-)-norepinephrine bitartrate] | – | – | – | – | EC50 (CqDOP2 [7]): 52.2 ± 13.8 µM; EC50 fold higher than that of dopamine, CqDOP2 (CqDOP2 [7]): at least 10 fold; EC50 fold higher than that of dopamine, AaDOP2 (AaDOP2 [8]): at least 10 fold; fold more agonist required than dopamine, AmDOP2 (AmDOP2): approximately 25 fold; EC50 (AaDOP2 [9]): 30.3 ± 7.5 µM |
| – | – | CSc1ccc2c(c1)C(N1CCN(C)CC1)Cc1ccccc1S2 (stereo not shown) [Methiothepin] | 15.7 ± 4.9 h | 30.6 ± 1.4 h | – | – | earliest time debilitated larvae observed after exposure, C. quinquefasciatus [1]: 1 h; larval mortality, C. quinquefasciatus, within the first 24 h [1]: > 70%; LC50 ([1]; read-out: LC50, Cq, L3 larvae, 72 h exposure, ±SEM, n ≥ 3): 44 ± 3 µM; larval mortality, Ae. aegypti, after 48 h (Ae. aegypti larvae [2]; 48 h post exposure (S4 Fig)): > 70%; LC50 (Ae. aegypti larvae [2]; read-out: LC50, Aa, L3 larvae, 72 h exposure, ±SEM, n ≥ 3): 69 ± 12 µM |
| 0.709 ± 0.187 µM | 0.745 ± 0.062 µM | CN1CCc2cc(Cl)c(O)cc2[C@@H](c2ccccc2)C1 [SCH23390, SCH23390 hydrochloride] | – | – | – | – | – |
| 0.002 ± 0.0008 µM | 0.002 ± 0.0005 µM | OCCN1CCN(CC/C=C2/c3ccccc3Sc3ccc(C(F)(F)F)cc32)CC1 [Cis-(Z)-flupenthixol, cis-(Z)-flupenthixol dihydrochloride] | 35.2 ± 6.1 h | 42.6 ± 2.9 h | 59 ± 22 µM | 83 ± 25 µM | – |
| – | – | CN(C)CCCN1c2ccccc2CCc2ccc(Cl)cc21 [Clomipramine] | 27.3 ± 3.0 h | 28.7 ± 3.1 h | 89 ± 19 µM | 88 ± 24 µM | – |
| – | – | (±) butaclamol hydrochloride [(±)-Butaclamol] | – | – | – | – | IC50 (CqDOP2 [10]): 0.172 ± 0.015 µM |
| – | – | CN(C)CC/C=C1/c2ccccc2Sc2ccc(Cl)cc21 [Chlorprothixene] | 13.9 ± 2.0 h | 22.2 ± 3.2 h | 41 ± 7 µM | 62 ± 9 µM | earliest time debilitated larvae observed after exposure, C. quinquefasciatus [1]: 1 h; larval mortality, C. quinquefasciatus, within the first 24 h [1]: > 70%; larval mortality, Ae. aegypti, after 48 h (Ae. aegypti larvae [2]; 48 h post exposure (S4 Fig)): > 70%; earliest time debilitated larvae observed after exposure, Ae. aegypti (Ae. aegypti larvae [2]; in vivo): 2 h |
| 0.0007 ± 0.0002 µM | 0.0008 ± 3e-05 µM | CN1CC2c3ccccc3Oc3ccc(Cl)cc3C2C1 (stereo not shown) [Asenapine, asenapine maleate] | 24.2 ± 1.3 h | 36.4 ± 1.6 h | 50 ± 10 µM | 102 ± 22 µM | IC50 (Human D1; [11]): 0.101 ± 0.002 µM; larval mortality, Ae. aegypti, after 48 h (Ae. aegypti larvae [2]; in vivo): > 70% |

| Compound | IC50 (AaDOP2 [3]) | IC50 (CqDOP2 [4]) | LT50, Cq ([1]; L3 larvae, ±SEM, n ≥ 3) | LT50, Aa (Ae. aegypti larvae [2]; L3 larvae, ±SEM, n ≥ 3) | LC50 [5] | LC50 (Ae. aegypti larvae [6]) | further results |
| --- | --- | --- | --- | --- | --- | --- | --- |
| CN(C)CCC=C1c2ccccc2CCc2ccccc21 [Amitriptyline, amitriptyline hydrochloride] | 0.0064 ± 0.002 µM | 0.0033 ± 0.0004 µM | 41.7 ± 2.1 h | 47.8 ± 6.3 h | 165 ± 37 µM | 208 ± 137 µM | IC50 (Human D1): 0.69 ± 0.052 µM |
| CN(C)CCCN1c2ccccc2Sc2ccc(Cl)cc21 [Chlorpromazine, chlorpromazine hydrochloride] | 0.019 ± 0.001 µM | 0.0074 ± 0.002 µM | 16.7 ± 1.1 h | 26.1 ± 0.9 h | 64 ± 9 µM | 88 ± 9 µM | earliest time debilitated larvae observed after exposure, C. quinquefasciatus [1]: 1 h; larval mortality, C. quinquefasciatus, within the first 24 h [1]: > 70%; larval mortality, Ae. aegypti, after 48 h (Ae. aegypti larvae [2]; 48 h post exposure (S4 Fig)): > 70% |

Reference: PMC4368516 (PLoS Neglected Tropical Diseases, 2015)
